The values below come from patent US5693677A, “Ceramide 3 derivatives based on monounsaturated fatty acids” (Gist-brocades N.V., priority 1994, dated 1997).

Data set [1] is described as follows: Thermo-gravimetric analysis (TG/DTA) of ceramides, oxidation stability. Format: physicochemical. The following applies: 5° C./min; for Stability in thermo-gravimetric analysis: 25° to 180° C., oxygen (100 ml/min), in words. Here is the method: Thermo-gravimetry (TG) and Differential Thermo-gravimetric Analysis (DTA) were carried out using the SSC 5200 system of Seiko, provided with the TG/DTA furnaces. Standard procedures were used to obtain the desired data.
Atmosphere oxygen (100 ml/min)
Reference empty, open Pt pan
Sample size ± 5 mg powder
Sample container open Pt pan

Data set [2] can be described thus: Solubility of ceramide 3 derivatives in emollients (visual inspection, maximum concentration before cloudiness). In kind it is physicochemical. To be noted: for solubility: organic solvent or mixture. Here is the method:
The compound produced in Example 1, N-oleoyl phytosphingosine (also called Ceramide IIIB) was tested by solubilisation in isocetyl alcohol (Eutanol™ G16, Henkel), isostearic acid (Emersol, Henkel), triglycerides (Myritolo 318, J. Dekker), wallnut oil (J. Dekker) and avocado oil (J. Dekker).
Increasing amounts of the compound were added to the solvent and stirred under nitrogen for 30 minutes at 45° C. After cooling to room temperature (22° C.±2° C.) the solutions were kept in the dark. After 1, 24 and 48 hours the solutions were visually inspected. The maximum concentration was determined before the solution turned cloudy, indicating the presence of insoluble crystals.
The solubility of a saturated ceramide 3 derivative, N-stearoylphytosphingosine, was also determined.

Data set [3] concerns SDS-damaged skin. The experiment in a line: Effects of ceramide IIIB formulations on SDS-damaged skin, trans-epidermal water loss (TEWL). In kind it is in vivo, human (female volunteers). The following applies: 0.2 and 0.5% Ceramide IIIB. How it is done: (§1) Measurements of trans-epidermal water loss (TEWL) were performed with the Tewameter (Courage & Khazaka, Cologne, Germany). The Tewameter is a device for measurement of water evaporation on skin surfaces based on the diffusion principle discovered by A. Fick in 1885.
(§2) after damaging the skin with SDS
(§3) 1 hour after last application on days 3, 7, 14
(§4) Five female volunteers at the age of 22-43 years with healthy skin were included in the test.
(§5) Measurements were carried out at a temperature of 22°±1° C. and a relative humidity of 60±10%. Subjects were accustomed to ambient conditions for 20 min prior to any measurement. The test was carried out on the volar forearms. The skin of the forearms was treated with a 5% aqueous solution of sodium lauryl sulphate (SDS) and an occlusive dressing applied. The dressing was removed 2 h later, and the regions gently washed with water and air-dried. After 30 min the measurements were done. Then the three test products were applied, one area remained untreated. The dose of application was about 2 mg/cm^2. In the following 14 days a home application in the morning and evening took place.
Measurements were evaluated during the treatment period on day 3, 7 and 14 one hour after the last daily application. Use of other cosmetic products was restricted on the test areas throughout the whole study.

Data set [4] deals with SDS-damaged skin. The experiment in a line: Effects of ceramide IIIB formulations on SDS-damaged skin, skin humidity (corneometry). In kind it is in vivo, human (female volunteers). The following applies: skin pretreated with a surfactant (SDS), topical. Here is the method: The corneometer CM 820 PC (Courage and Khazaka, Cologne, Germany) registers the electrical capacitance of the skin surface, which is a measure of the degree of moisture on the skin's surface. The capacitance is expressed digitally in arbitrary units (a.u.). Three measurements were performed on each test area and the mean was used to define hydration state of the stratum corneum.
as §2, §3, §4, §5
Measurements were evaluated during the treatment period on day 3, 7 and 14 one hour after the last daily application. […]

Data set [5] deals with skin (SDS-challenge). The experiment in a line: Protective effects of ceramide IIIB formulations against SDS-challenge, TEWL. In kind it is in vivo, human (female volunteers). The following applies: pretreatment, in words (TEWL and skin colour). How it is done: as §1
before start of treatment;
two hours after last application on day 7;
2 hours after irritation with SDS (2 h under occlusion).
Two panels of each five female volunteers at the age of 19-55 years with healthy skin were included in the test.
Measurements were carried out at a temperature of 22°±1° C. and a relative humidity of 60±10%. Subjects were accustomed to ambient conditions for 20 min prior to any measurement. The test was carried out on the volar forearms. Initially untreated skin was measured in all four areas to find baseline values. Then the three test products were applied, one area remained untreated. The dose of application was about 2 mg/cm^2. In the following 7 days a home application in the morning and evening took place. Measurements were evaluated during the treatment period on day 7 two hours after the last daily application. […]
The results of TEWL and skin colour measurements are presented in respectively FIGS. 5 and 6. Values are expressed as (Valueday7 -Valueday0)/Valueday0 ×100%.

In brackets after ≈: the same amount, converted by molar mass. Bounds are passed on as bounds.

`CCCCCCCCCCCCCCCCCC(=O)N[C@@H](CO)[C@H](O)[C@H](O)CCCCCCCCCCCCCC` [Ceramide III, N-stearoylphytosphingosine, reference compound]: the “Stability in thermo-gravimetric analysis” value in data set [1] is “most stable compound as is illustrated by the absence of change of weight”. The solubility came out at 50 µg/mL (≈ 85.6 µM) in data set [2] (avocado oil); 600 µg/mL (≈ 1030 µM) in data set [2] (emersol (isostearic acid)); 1600 µg/mL (≈ 2740 µM) in data set [2] (eutanol g16 (isocetyl alcohol)); 50 µg/mL (≈ 85.6 µM) in data set [2] (myritol 318 (triglycerides)); 50 µg/mL (≈ 85.6 µM) in data set [2] (wallnut oil).
Turning to `CCCCCCCC/C=C\CCCCCCCC(=O)N[C@@H](CO)[C@H](O)[C@H](O)CCCCCCCCCCCCCC` [Ceramide IIIB, N-oleoylphytosphingosine], in data set [1], the “Stability in thermo-gravimetric analysis” value was “behaviour similar to ceramide 3, although showing a steadily increasing baseline, probably due to hydration. However, no sudden increase in weight followed by decomposition is observed”. For the same compound, the TEWL dose-response entry in data set [3] is given as “a clear dose-response effect”. For the same compound, the “Recovery of diminished water-retaining properties of skin” value in data set [4] is given as “high capacity for recovering diminished water-retaining properties of the skin”. Also, the solubility in data set [2] (avocado oil) was < 200 µg/mL; in data set [2] (emersol (isostearic acid)), 8000 µg/mL (≈ 13700 µM); in data set [2] (eutanol g16 (isocetyl alcohol)) it was 12000 µg/mL (≈ 20600 µM); in data set [2] (myritol 318 (triglycerides)), 800 µg/mL (≈ 1370 µM); in data set [2] (wallnut oil), 200 µg/mL (≈ 344 µM). Further, in data set [2] (emollients, in words), the “Solubility compared with saturated analogue” value is given as “solubilizes much better than its saturated analogue”. The “Protection from SDS-induced skin damage” value in data set [5] is on record as “protects the skin from SDS-induced damage”.
Take `CCCCC/C=C\C/C=C\CCCCCCCC(=O)N[C@@H](CO)[C@H](O)[C@H](O)CCCCCCCCCCCCCC` [sample IIIA, N-linoleoylphytosphingosine]: in data set [1] (oxygen), the “Temperature at which weight increase (oxidation) followed by decomposition starts” value was “ca. 80 °C”. Also, the “Stability in thermo-gravimetric analysis” value in data set [1] is given as “increase in weight (oxidation) followed by decomposition”.
